Measured values: US10799518B2, “Use of agonists of formyl peptide receptor 2 for treating dermatological diseases” (Allergan, Inc., priority 2013, dated 2020)

System: LL-37-induced inflammation in mouse ears
Experiment: LL37-induced model of rosacea in mice (ear thickness)
Format: in vivo
Details: topical to ears; p<0.05 vs. vehicle; FIG. 2
Protocol: LL37-Induced Model of Rosacea in Mice:
Prior to dosing, animals are lightly anaesthetized with isofluorane and baseline right and left ear thickness measurements are made with a digital caliper (Mitutoyo 293-340). At t=−1 hrs, animals are lightly anaesthetized with isoflurane to allow topical application (dorsal side) of 10 μL of FPR2 agonist formulated in a vehicle consisting of PBS:ethanol (50:50), or vehicle control to both ears. At t=0 hr, mice are re-anaesthetized. Following ear thickness measurements, 20 uL of LL-37 (100 μM) is injected into the right ear, while PBS is injected into the left ear. Additional ear thickness measurements are taken at t=3 and 6 hours. After the last time point, mice are euthanized by CO2 inhalation and ears collected for additional analyses.

Compound: CC(C)C[C@H](NC(=O)Nc1ccc(Br)cc1)C(=O)NCC(=O)O [Compound 8, {[(2S)-2-{[(4-bromophenyl)carbamoyl]amino}-4-methylpentanoyl]amino} acetic acid]
- inflammation induced by LL-37 in mouse ears: Anti-inflammatory activity
